According to PubChem BioAssay AID248 (DTP/NCI, 2004):
“And” between values parts separate entries of the source, which are not always exact repeats. Identical values can stand only once. Inconclusive results and toxic doses are left out.

System: L1210 leukemia ip in BDF1 mice, survival T/C
Experiment: NCI In Vivo Anticancer Drug Screen. Data for tumor model L1210 Leukemia (intraperitoneal) in B6D2F1 (BDF1) mice
Conditions: endpoint: mean survival time, higher = longer survival
Summary of the method: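 In this screen, tumor-bearing mice given compound are compared to those given vehicle, and their survival values are reported as a treated-to-control quotient.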

[1] = dose: 100.0 mg/kg/injection, schedule: Q01DX009 (ip), vehicle: saline with Tween-80
[2] = dose: 200.0 mg/kg/injection, schedule: Q01DX009 (ip), vehicle: saline with Tween-80
[3] = dose: 100.0 mg/kg/injection, schedule: Q01DX001 (ip), vehicle: saline
[4] = dose: 100.0 mg/kg/injection, schedule: Q04DX003 (ip), vehicle: saline with Tween-80
[5] = dose: 200.0 mg/kg/injection, schedule: Q04DX003 (ip), vehicle: saline with Tween-80
[6] = dose: 400.0 mg/kg/injection, schedule: Q04DX003 (ip), vehicle: saline with Tween-80
[7] = dose: 400.0 mg/kg/injection, schedule: Q01DX009 (ip), vehicle: saline with Tween-80

For `CN1CN(c2ccccc2)C2(CCN(CC3Cc4cc(F)ccc4O3)CC2)C1=O` (stereo unspecified), the T/C (dose: 100.0 mg/kg/injection, schedule: Q01DX001 (ip), vehicle: Klucel (hydroxypropylcellulose) (HPC)) was 101 % of control, the T/C (dose: 200.0 mg/kg/injection, schedule: Q01DX001 (ip), vehicle: Klucel (hydroxypropylcellulose) (HPC)) was 98 % of control and the T/C (dose: 400.0 mg/kg/injection, schedule: Q01DX001 (ip), vehicle: Klucel (hydroxypropylcellulose) (HPC)) was 96 % of control.

With `COC(=O)C(C)NC(=O)C(C)NC(=O)c1cnc2ccccc2n1` (stereo unspecified) the T/C (dose: 100.0 mg/kg/injection, schedule: Q01DX001 (ip), vehicle: carboxymethylcellulose (CMC)) was 89 % of control and the T/C (dose: 200.0 mg/kg/injection, schedule: Q01DX001 (ip), vehicle: carboxymethylcellulose (CMC)) was 93 % of control.

With `CCOC(=O)C(C(=O)OCC)C1CCCC(=O)C1` (stereo unspecified) the T/C (dose: 50.0 mg/kg/injection, schedule: Q01DX009 (ip), vehicle: saline with Tween-80) was 92 % of control, the T/C [1] was 96 % of control and the T/C [2] was 92 % of control.

With `CCN(CC)CCC(=O)c1ccc2oc3ccccc3c2c1` the T/C (dose: 12.0 mg/kg/injection, schedule: Q01DX001 (ip), vehicle: saline) was 100 % of control, the T/C (dose: 25.0 mg/kg/injection, schedule: Q01DX001 (ip), vehicle: saline) was 90 % of control and the T/C (dose: 50.0 mg/kg/injection, schedule: Q01DX001 (ip), vehicle: saline) was 103 % of control. The T/C [3] was 113 % of control.

`c1ccc2c(c1)ccc1c2ccc2cccc[n+]21` was tested, and the T/C (dose: 1.25 mg/kg/injection, schedule: Q01DX001 (ip), vehicle: saline) was 97 % of control, the T/C (dose: 2.5 mg/kg/injection, schedule: Q01DX001 (ip), vehicle: saline) was 97 % of control and the T/C (dose: 5.0 mg/kg/injection, schedule: Q01DX001 (ip), vehicle: saline) was 103 % of control. The T/C (dose: 5.0 mg/kg/injection, schedule: Q01DX015 (ip), vehicle: saline) was 103 % of control and the T/C (dose: 10.0 mg/kg/injection, schedule: Q01DX001 (ip), vehicle: saline) was 107 % of control.

In the case of `COC(=O)/C(O)=C/C(N)=O.COC(=O)/C(O)=C/C(N)=O.[Cu]`, the T/C (dose: 9.37 mg/kg/injection, schedule: Q01DX001 (ip), vehicle: carboxymethylcellulose (CMC)) is reported as 89 % of control, the T/C (dose: 18.75 mg/kg/injection, schedule: Q01DX001 (ip), vehicle: carboxymethylcellulose (CMC)) is reported as 87 % of control and the T/C (dose: 37.5 mg/kg/injection, schedule: Q01DX001 (ip), vehicle: carboxymethylcellulose (CMC)) is reported as 96 % of control.

`CCOC(=O)CCC1(C(=O)OC)C(=O)CCCCCCC1C(=O)OC` (stereo unspecified) was tested, and the T/C [4] was 103 % of control, the T/C [5] was 99 % of control and the T/C [6] was 96 % of control.

For `NC(=NC1CCC(C2CCC(N)CC2)CC1)C(N)=NC1CCC(C2CCC(N)CC2)CC1` (stereo unspecified), the T/C [1] was 98 % of control, the T/C [4] was 100 % of control and the T/C [2] was 98 % of control. The T/C [5] was 91 % of control, the T/C [7] was 98 % of control and the T/C [6] was 95 % of control.

With `CCCCc1cnc(NCCCC(N)C(=O)O)nc1` (stereo unspecified) the T/C (dose: 25.0 mg/kg/injection, schedule: Q04DX002 (ip), vehicle: saline) was 100 % of control, the T/C (dose: 50.0 mg/kg/injection, schedule: Q04DX002 (ip), vehicle: saline) was 95 % of control and the T/C (dose: 100.0 mg/kg/injection, schedule: Q04DX002 (ip), vehicle: saline) was 92 % of control.

`C/C(=C(/SS/C(C(=O)O)=C(/C)c1cccc(O)c1)C(=O)O)c1cccc(O)c1` was tested, and the T/C [3] was 97 % of control, the T/C (dose: 200.0 mg/kg/injection, schedule: Q01DX001 (ip), vehicle: saline) was 97 % of control and the T/C (dose: 400.0 mg/kg/injection, schedule: Q01DX001 (ip), vehicle: saline) was 97 % of control.

For `CC(=O)Oc1cc2c(cc1N=NN(C)C)[C@H]1CC[C@]3(C)[C@@H](O)CC[C@H]3[C@@H]1CC2`, the T/C (dose: 50.0 mg/kg/injection, schedule: Q01DX009 (ip), vehicle: Klucel (hydroxypropylcellulose) (HPC)) was 95 % of control.

`CC1(C)CN1C1=C(Cl)C(=O)C(N2CC2(C)C)=C(Cl)C1=O` was tested, and the T/C (dose: 1.56 mg/kg/injection, schedule: Q04DX003 (ip), vehicle: saline) was 92 % of control, the T/C (dose: 3.12 mg/kg/injection, schedule: Q04DX003 (ip), vehicle: saline) was 96 % of control and the T/C (dose: 6.25 mg/kg/injection, schedule: Q04DX003 (ip), vehicle: saline) was 113 % of control. For the same compound, the T/C (dose: 12.5 mg/kg/injection, schedule: Q04DX003 (ip), vehicle: saline) was 101 % of control, the T/C (dose: 25.0 mg/kg/injection, schedule: Q04DX003 (ip), vehicle: saline) was 96 % of control and the T/C (dose: 50.0 mg/kg/injection, schedule: Q04DX003 (ip), vehicle: saline) was 92 % of control. For the same compound, the T/C (dose: 75.0 mg/kg/injection, schedule: Q04DX003 (ip), vehicle: saline) was 104 % of control, the T/C (dose: 115.0 mg/kg/injection, schedule: Q04DX003 (ip), vehicle: saline) was 104 % of control and the T/C (dose: 170.0 mg/kg/injection, schedule: Q04DX003 (ip), vehicle: saline) was 108 % of control.

For `O=C(NCc1cnccn1)Nc1ccccc1`, the T/C (dose: 25.0 mg/kg/injection, schedule: Q01DX009 (ip), vehicle: saline) was 101 % of control, the T/C (dose: 50.0 mg/kg/injection, schedule: Q01DX009 (ip), vehicle: saline) was 87 % of control and the T/C (dose: 100.0 mg/kg/injection, schedule: Q01DX009 (ip), vehicle: saline) was 108 % of control. The T/C (dose: 200.0 mg/kg/injection, schedule: Q01DX009 (ip), vehicle: saline) was 102 % of control and the T/C (dose: 400.0 mg/kg/injection, schedule: Q01DX009 (ip), vehicle: saline) was 103 % of control.

With `CC[n+]1ccccc1-c1ccc(NC(=O)c2ccc(C(=O)Nc3ccc(-c4ccccn4)cc3)cc2)cc1` the T/C (dose: 0.75 mg/kg/injection, schedule: Q01DX Z (ip), vehicle: saline) was 120 % of control, the T/C (dose: 2.6 mg/kg/injection, schedule: Q01DX Z (ip), vehicle: saline) was 194 % of control and 213 % of control and the T/C (dose: 2.9 mg/kg/injection, schedule: Q01DX001 (ip), vehicle: saline) was 116 % of control. The T/C (dose: 4.0 mg/kg/injection, schedule: Q01DX Z (ip), vehicle: saline) was 176 % of control, the T/C (dose: 4.4 mg/kg/injection, schedule: Q01DX001 (ip), vehicle: saline) was 124 % of control and the T/C (dose: 6.0 mg/kg/injection, schedule: Q01DX Z (ip), vehicle: saline) was 170 % of control. For the same compound, the T/C (dose: 7.0 mg/kg/injection, schedule: Q01DX Z (oral), vehicle: saline) was 103 % of control, the T/C (dose: 14.0 mg/kg/injection, schedule: Q01DX Z (ip), vehicle: saline) was 100 % of control and the T/C (dose: 15.0 mg/kg/injection, schedule: Q01DX Z (oral), vehicle: saline) was 100 % of control. For the same compound, the T/C (dose: 20.0 mg/kg/injection, schedule: Q01DX001 (ip), vehicle: saline) was 164 % of control, the T/C (dose: 22.0 mg/kg/injection, schedule: Q01DX Z (ip), vehicle: saline) was 102 % of control and the T/C (dose: 30.0 mg/kg/injection, schedule: Q01DX Z (oral), vehicle: saline) was 102 % of control. The T/C (dose: 35.0 mg/kg/injection, schedule: Q01DX Z (ip), vehicle: saline) was 88 % of control and the T/C (dose: 40.0 mg/kg/injection, schedule: Q01DX001 (ip), vehicle: saline) was 153 % of control and 191 % of control.

`NNC(=O)c1ccc(S(N)(=O)=O)cc1` was tested, and the T/C (dose: 12.5 mg/kg/injection, schedule: Q01DX009 (ip), vehicle: water) was 93 % of control, the T/C (dose: 25.0 mg/kg/injection, schedule: Q01DX009 (ip), vehicle: water) was 96 % of control and the T/C (dose: 50.0 mg/kg/injection, schedule: Q01DX009 (ip), vehicle: water) was 343 % of control. For the same compound, the T/C (dose: 59.0 mg/kg/injection, schedule: Q01DX009 (ip), vehicle: other) was 93 % of control and 103 % of control, the T/C (dose: 89.0 mg/kg/injection, schedule: Q01DX009 (ip), vehicle: other) was 97 % of control and 92 % of control and the T/C (dose: 100.0 mg/kg/injection, schedule: Q01DX009 (ip), vehicle: water) was 403 % of control. The T/C (dose: 133.0 mg/kg/injection, schedule: Q01DX009 (ip), vehicle: other) was 101 % of control and 87 % of control, the T/C (dose: 200.0 mg/kg/injection, schedule: Q01DX009 (ip), vehicle: other) was 99 % of control and 90 % of control and the T/C (dose: 200.0 mg/kg/injection, schedule: Q01DX009 (ip), vehicle: water) was 459 % of control. For the same compound, the T/C (dose: 300.0 mg/kg/injection, schedule: Q01DX009 (ip), vehicle: other) was 94 % of control and 99 % of control.

`CC1=NC(=NC(=O)c2ccccc2)N=C1` was tested, and the T/C [4] was 97 % of control, the T/C [5] was 96 % of control and the T/C [6] was 96 % of control.

In the case of `CCCn1c2ccccc2c2ccccc21`, the T/C (dose: 100.0 mg/kg/injection, schedule: Q01DX009 (ip), vehicle: Klucel (hydroxypropylcellulose) (HPC)) is reported as 96 % of control, the T/C (dose: 200.0 mg/kg/injection, schedule: Q01DX009 (ip), vehicle: Klucel (hydroxypropylcellulose) (HPC)) is reported as 97 % of control and the T/C (dose: 400.0 mg/kg/injection, schedule: Q01DX009 (ip), vehicle: Klucel (hydroxypropylcellulose) (HPC)) is reported as 94 % of control.

In the case of `CC(O)(/C=C\c1ccccc1)c1ccccc1` (stereo unspecified), the T/C [1] is reported as 104 % of control, the T/C [4] is reported as 103 % of control and the T/C [2] is reported as 102 % of control. For the same compound, the T/C [5] was 101 % of control, the T/C [7] was 93 % of control and the T/C [6] was 108 % of control.
